Source: ChEMBL document CHEMBL1201862, “PubChem BioAssay data set” (2004)
Calls of active or inactive are those of the source.

Columns and labels:
[1] = biological target: Glucose-6-phosphate 1-dehydrogenase (Homo sapiens, UniProt P11413); test: inhibition of Homo sapiens G6PD, dose series – biochemical, fluorescence, selectivity assay for P. falciparum G6PD inhibitor project, dose response (AID 504792); format: functional
[2] = biological target: T1, Corticotropin-releasing factor receptor 2/Corticotropin-releasing factor-binding protein (Homo sapiens, UniProt P24387+Q13324); test: activators of CRF receptor 2 with binding protein – uHTS hits, confirmation (AID 602473); format: functional; conditions: read-out: EC50_Mean
T1 sequence (Q13324 whole entry): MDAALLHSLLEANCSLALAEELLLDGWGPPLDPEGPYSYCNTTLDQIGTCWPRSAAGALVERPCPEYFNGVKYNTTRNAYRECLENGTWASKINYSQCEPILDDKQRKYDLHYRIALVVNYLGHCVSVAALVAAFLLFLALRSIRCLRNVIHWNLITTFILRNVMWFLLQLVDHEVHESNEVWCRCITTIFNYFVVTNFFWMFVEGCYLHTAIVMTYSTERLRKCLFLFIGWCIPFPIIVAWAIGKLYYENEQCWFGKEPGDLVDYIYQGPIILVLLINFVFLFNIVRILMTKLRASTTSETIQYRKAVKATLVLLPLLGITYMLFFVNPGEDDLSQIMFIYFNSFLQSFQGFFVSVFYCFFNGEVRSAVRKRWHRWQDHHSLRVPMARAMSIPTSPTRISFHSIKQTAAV
T1 sequence (P24387 whole entry): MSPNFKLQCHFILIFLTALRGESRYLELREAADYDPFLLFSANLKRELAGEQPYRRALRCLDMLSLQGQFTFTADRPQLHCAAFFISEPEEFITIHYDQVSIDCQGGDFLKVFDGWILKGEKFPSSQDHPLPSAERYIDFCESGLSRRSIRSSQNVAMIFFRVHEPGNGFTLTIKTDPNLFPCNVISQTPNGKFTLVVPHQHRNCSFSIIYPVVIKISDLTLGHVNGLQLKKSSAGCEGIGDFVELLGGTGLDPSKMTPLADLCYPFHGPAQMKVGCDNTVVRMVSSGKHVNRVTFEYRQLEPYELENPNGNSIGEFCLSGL

[3] = biological target: T1, Corticotropin-releasing factor receptor 2/Corticotropin-releasing factor-binding protein; test: Dose Response confirmation of uHTS hits for small molecule antagonists of the CRF-binding protein and CRF-R2 receptor complex.; format: functional; conditions: read-out: IC50_Mean
[4] = biological target: T2, Ubiquitin-conjugating enzyme E2 N (Homo sapiens, UniProt P61088); format: functional;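 further: Dose-response confirmation in a TR-FRET assay detecting UBC13-driven polyubiquitin chain formation, inhibition measured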
T2 sequence (P61088 whole entry): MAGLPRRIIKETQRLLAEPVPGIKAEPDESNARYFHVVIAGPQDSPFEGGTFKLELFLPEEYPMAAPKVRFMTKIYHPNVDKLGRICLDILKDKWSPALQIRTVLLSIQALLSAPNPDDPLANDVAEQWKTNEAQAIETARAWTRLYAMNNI

[5] = biological target: T3, Nucleotide-binding oligomerization domain-containing protein 1 (Homo sapiens, UniProt Q9Y239); test: blockers of NOD1 pathway activity – revised, SAR follow-up (AID 2333); format: functional
T3 sequence (Q9Y239 whole entry): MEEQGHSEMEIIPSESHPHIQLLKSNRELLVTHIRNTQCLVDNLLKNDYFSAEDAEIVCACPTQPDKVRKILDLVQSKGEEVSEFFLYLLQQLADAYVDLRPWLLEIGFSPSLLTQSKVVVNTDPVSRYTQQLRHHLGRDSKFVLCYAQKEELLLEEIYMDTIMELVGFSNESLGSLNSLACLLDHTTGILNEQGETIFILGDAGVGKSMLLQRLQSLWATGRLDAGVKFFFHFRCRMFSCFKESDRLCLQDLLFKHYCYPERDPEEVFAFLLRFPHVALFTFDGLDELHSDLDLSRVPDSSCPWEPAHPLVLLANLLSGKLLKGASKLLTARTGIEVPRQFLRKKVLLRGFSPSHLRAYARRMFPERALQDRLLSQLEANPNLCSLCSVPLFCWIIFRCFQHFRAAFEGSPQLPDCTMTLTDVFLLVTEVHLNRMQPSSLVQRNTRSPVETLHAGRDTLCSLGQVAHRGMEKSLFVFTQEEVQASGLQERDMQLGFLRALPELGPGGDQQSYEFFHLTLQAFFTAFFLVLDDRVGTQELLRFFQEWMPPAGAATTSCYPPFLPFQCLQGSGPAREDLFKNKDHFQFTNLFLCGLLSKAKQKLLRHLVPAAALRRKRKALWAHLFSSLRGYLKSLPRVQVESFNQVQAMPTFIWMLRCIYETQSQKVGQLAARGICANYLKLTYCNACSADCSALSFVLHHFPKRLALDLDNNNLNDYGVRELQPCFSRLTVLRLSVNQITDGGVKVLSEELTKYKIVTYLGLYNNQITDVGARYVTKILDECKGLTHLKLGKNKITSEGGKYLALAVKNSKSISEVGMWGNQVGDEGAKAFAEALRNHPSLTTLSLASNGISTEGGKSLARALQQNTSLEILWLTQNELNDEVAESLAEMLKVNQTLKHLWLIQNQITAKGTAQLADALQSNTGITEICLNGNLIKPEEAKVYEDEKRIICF

HEK293 [6] = test: cells; conditions: Homo sapiens
Tumor necrosis factor = Tumor necrosis factor (Homo sapiens, UniProt P01375); test: analog potency on TNFa NF-kB signaling – cell-based, revised, SAR follow-up (AID 2337); format: functional
[7] = activation of miR-122 Renilla sensor silencing – cell-based, Huh7 psiCHECK-miR122, Renilla luciferase, cherry-picked, dose response (AID 651956); format: functional;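 further: huh7 hepatoma cells stably carrying a psiCHECK-2 miR-122 sensor plasmid; renilla luciferase signal reporting endogenous miR-122 activity after 48 h compound exposure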
[8] = non-specific 3'UTR reporter inhibition in Clone20-Shn3RL – cell-based, Renilla luciferase, cherry-picked, counter-screen for Shn3 inhibitor project, dose response (AID 624133); format: functional
[9] = reduction of Shn3 3'UTR-driven luciferase in osteoblasts – cell-based, Clone20 osteoblasts, firefly luciferase, cherry-picked, dose response (AID 624132); format: functional;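 further: firefly luciferase luminescence from reporter carrying the Shn3 3'UTR in osteoblasts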
[10] = loss of viability in HepG2 cells – cell-based, CellTiter-Glo, cherry-picked, cytotoxicity control for Shn3 inhibitor project, dose response (AID 624134); format: functional
[11] = microbe, parasite or virus in culture; format: functional; conditions: Mycobacterium tuberculosis
HEK293 [12] = test: cells; format: functional, cell-based; conditions: Homo sapiens
HEK293 [13] = test: cells; format: functional, cell-based; conditions: Homo sapiens; remark: listed apart in the source
HEK293 [14] = test: inhibition of NOD1-driven NF-kB reporter – cell-based, luminescence, uHTS, primary screen (AID 1578); format: functional; conditions: Homo sapiens
HEK293 [15] = test: NOD2 signaling inhibitors in MDP-stimulated cells, cell-based, uHTS, luminescence (AID 2001); format: functional; conditions: Homo sapiens
Vero = test: cells; format: functional; conditions: Chlorocebus sabaeus
[16] = biological target: Heat shock protein HSP 90-alpha (Homo sapiens, UniProt P07900); format: functional, organism-based
[17] = biological target: T4, Microphthalmia-associated transcription factor (Homo sapiens, UniProt O75030); test: reducers of TRPM1 reporter luminescence, concentration series – cell-based, SK-MEL-5, cherry-picked, set 3, MITF inhibitor project, dose response (AID 493073); format: functional;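 further: SK-MEL-5 melanoma cells with luciferase driven by the MITF target TRPM1 promoter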
T4 sequence (O75030 whole entry): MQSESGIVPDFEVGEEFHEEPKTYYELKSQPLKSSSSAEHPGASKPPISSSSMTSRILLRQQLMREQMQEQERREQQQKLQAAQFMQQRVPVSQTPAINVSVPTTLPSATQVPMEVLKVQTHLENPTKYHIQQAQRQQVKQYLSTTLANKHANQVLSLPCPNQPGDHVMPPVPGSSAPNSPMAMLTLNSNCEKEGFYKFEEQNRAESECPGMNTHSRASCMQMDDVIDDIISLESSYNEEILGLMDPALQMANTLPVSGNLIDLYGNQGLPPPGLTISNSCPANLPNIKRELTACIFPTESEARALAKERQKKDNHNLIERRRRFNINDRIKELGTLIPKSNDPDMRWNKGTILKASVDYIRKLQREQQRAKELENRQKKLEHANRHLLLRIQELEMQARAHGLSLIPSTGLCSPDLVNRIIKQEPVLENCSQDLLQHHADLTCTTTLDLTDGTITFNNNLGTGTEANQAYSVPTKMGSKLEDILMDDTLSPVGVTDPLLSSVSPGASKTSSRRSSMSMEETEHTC

cells = format: functional
[18] = viability of uninfected HEp-2 cells – cell-based, HTS, cytotoxicity control for RSV inhibitor project, dose response (AID 2410); format: functional; conditions: human respiratory syncytial virus
[19] = biological target: T5, Sentrin-specific protease 8 (Homo sapiens, UniProt Q96LD8); format: functional
T5 sequence (Q96LD8 whole entry): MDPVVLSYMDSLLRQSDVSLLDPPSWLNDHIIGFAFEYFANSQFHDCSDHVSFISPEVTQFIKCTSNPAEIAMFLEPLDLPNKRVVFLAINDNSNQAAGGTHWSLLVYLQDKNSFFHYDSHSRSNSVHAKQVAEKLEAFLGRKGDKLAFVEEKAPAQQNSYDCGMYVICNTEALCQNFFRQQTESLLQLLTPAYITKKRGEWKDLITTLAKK

[20] = Trypanosoma cruzi growth suppression in host cells – NIH3T3 host cells, beta-gal luminescence, confirmation (AID 2044); format: functional, cell-based;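 further: intracellular parasites grown in NIH/3T3 mouse fibroblasts as host cells; luminescent beta-galactosidase reporter signal from transgenic T. cruzi replicating inside host cells; inhibitors lower the luminescence signal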
[21] = NIH3T3 cell viability loss – ATP luminescence, mouse fibroblasts, counter-screen, dose response (AID 2010); format: functional, cell-based;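 further: cells exposed to compound for about 90 hours before reading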
[22] = biological target: T5, Sentrin-specific protease 8; format: functional; remark: listed apart in the source
[23] = biological target: T6, Heat shock factor protein 1 (Mus musculus, UniProt P38532); test: decrease of HSF1-responsive luciferase luminescence – cell-based, NIH3T3, dose retest, confirmation (AID 2382); format: functional;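 further: NIH3T3 fibroblasts with HSF1-driven luciferase reporter stressed by proteasome inhibitor MG132; luminescence from HSF1-driven luciferase expression after 8 hours of MG132 stress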
T6 sequence (P38532 whole entry): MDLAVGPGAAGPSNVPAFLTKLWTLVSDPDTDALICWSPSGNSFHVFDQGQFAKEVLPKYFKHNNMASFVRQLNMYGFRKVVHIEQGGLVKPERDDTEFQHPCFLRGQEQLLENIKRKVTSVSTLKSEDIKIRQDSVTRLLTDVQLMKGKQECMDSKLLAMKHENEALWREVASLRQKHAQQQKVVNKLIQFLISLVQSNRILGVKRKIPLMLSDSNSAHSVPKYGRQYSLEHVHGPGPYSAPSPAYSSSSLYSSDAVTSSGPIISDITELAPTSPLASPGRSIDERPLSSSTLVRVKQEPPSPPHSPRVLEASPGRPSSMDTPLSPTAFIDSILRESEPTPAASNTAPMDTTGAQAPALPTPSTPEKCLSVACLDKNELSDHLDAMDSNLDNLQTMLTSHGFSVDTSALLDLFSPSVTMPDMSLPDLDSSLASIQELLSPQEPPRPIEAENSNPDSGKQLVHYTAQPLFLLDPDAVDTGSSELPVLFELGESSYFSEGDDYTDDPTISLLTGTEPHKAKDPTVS

Sequence of Tumor necrosis factor (P01375 whole entry): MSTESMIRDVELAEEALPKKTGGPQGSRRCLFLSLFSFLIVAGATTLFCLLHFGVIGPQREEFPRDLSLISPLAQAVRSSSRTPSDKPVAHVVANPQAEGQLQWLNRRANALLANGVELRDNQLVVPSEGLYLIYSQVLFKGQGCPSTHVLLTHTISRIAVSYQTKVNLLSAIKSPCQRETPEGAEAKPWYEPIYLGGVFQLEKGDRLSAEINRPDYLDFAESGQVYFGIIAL
Sequence of Glucose-6-phosphate 1-dehydrogenase (P11413 whole entry): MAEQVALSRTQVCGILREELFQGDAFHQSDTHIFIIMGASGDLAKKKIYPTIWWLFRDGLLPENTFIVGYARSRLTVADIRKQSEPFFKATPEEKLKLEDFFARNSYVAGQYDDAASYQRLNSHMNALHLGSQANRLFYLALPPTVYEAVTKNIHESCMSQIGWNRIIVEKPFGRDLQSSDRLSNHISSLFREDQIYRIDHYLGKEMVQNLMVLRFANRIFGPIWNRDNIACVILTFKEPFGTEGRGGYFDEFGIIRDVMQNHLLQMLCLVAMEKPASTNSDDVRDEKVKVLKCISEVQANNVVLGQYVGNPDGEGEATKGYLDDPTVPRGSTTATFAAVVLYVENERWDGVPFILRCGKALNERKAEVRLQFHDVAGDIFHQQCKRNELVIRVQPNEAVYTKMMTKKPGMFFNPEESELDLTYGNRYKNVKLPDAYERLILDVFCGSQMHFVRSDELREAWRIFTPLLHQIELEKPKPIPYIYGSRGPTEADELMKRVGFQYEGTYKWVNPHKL

COC1=CC(=O)C=C(OC)C1(O)CC(C)=O
IC50 [1]: 54.3 µM (inactive)

COc1ccc(Cl)cc1Nc1nc(NCCO)nc(N2CCCCC2)n1
EC50 [2]: > 53 µM (inactive) | IC50 [3]: > 47.1 µM (inactive) | IC50 [4]: > 20 µM (inactive)

CCOc1cccc(C=NN=C(S)Nc2ccccc2[N+](=O)[O-])c1O
IC50 [5]: 8.23 µM (active) | IC50 (HEK293 [6]): > 20 µM (inactive) | IC50 (Tumor necrosis factor): 0.414 µM (active)

CNC(=O)C[C@@H]1CC[C@@H]2[C@@H](COc3ccc(NC(=O)c4cccc(OC)c4)cc3C(=O)N2C)O1
AC50 [7]: 67.7 µM (active)

Oc1ccccc1Nc1nc(NCc2ccccc2)c2ccccc2n1
AC50 [8]: 5.63 µM (active) | AC50 [9]: 10.7 µM (active) | AC50 [10]: 52.7 µM (active) | IC50 [4]: > 20 µM (inactive) | CC50 [11]: 23.9 µM (active)

CCn1c(=O)n(CC)c2cc(N3CCCC3)c(NC(=O)c3cccc(C)c3)cc21
IC50 [1]: > 80 µM (inactive)

COc1ccc(CNS(=O)(=O)c2ccc3c(c2)CC(C)N3C(=O)C2CC2)cc1 (stereo unspecified)
IC50 [5]: 13.1 µM (active) | IC50 (HEK293 [6]): > 20 µM (inactive) | IC50 (HEK293 [12]): 7.96 µM (active) | IC50 (HEK293 [13]): 14.8 µM (active) | EC50 (HEK293 [14]): 3.88 µM (active) | IC50 (HEK293 [15]): 12.5 µM (inactive) | IC50 (Tumor necrosis factor): > 20 µM (inactive)

COc1ccccc1CN1CCC(CNS(=O)(=O)c2cc(-c3cc(C)no3)ccc2OC)CC1
CC50 (Vero): > 25 µM (active)

C/C=C/c1ccc2c(c1)O[C@H](CN(C)C(=O)Cc1cccnc1)[C@H](C)CN([C@H](C)CO)S2(=O)=O
AC50 [7]: 10.7 µM (active)

O=[N+]([O-])/C=C\c1ccc(N2CCCC2)c(F)c1
AC50 [16]: 8.22 µM (active) | CC50 (Vero): 18.6 µM (active) | AC50 [17]: 13.4 µM (active)

CCOc1ccc2ccccc2c1/C=N/NC(=O)c1ccncc1
IC50 [1]: 27.1 µM (inactive) | IC50 (cells): 0.21 µM (active)

COc1ccc(S(=O)(=O)N2CCN(c3ccc4nnc(-c5ccccc5)n4n3)CC2)cc1
CC50 [18]: > 50 µM (active) | IC50 [4]: > 20 µM (inactive)

O=C(Nc1ccccc1N1CCCC1)c1ccc([N+](=O)[O-])o1
IC50 [19]: 31.3 µM (active) | EC50 [20]: 0.105 µM (active) | EC50 [21]: 13.5 µM (active) | IC50 [22]: 66.9 µM (inactive)

COC(=O)CCCC1=CC2=CC(=O)C(C)(OC(=O)c3cccs3)C(=O)C2=CN1CCCCO (stereo unspecified)
IC50 [19]: 7.79 µM (active) | IC50 [22]: 5.99 µM (active)

COC(=O)c1c(NC(=O)C=Cc2cccs2)sc2c1CCC(C)C2 (stereo unspecified)
IC50 [5]: 9.46 µM (active) | IC50 (HEK293 [6]): > 20 µM (inactive) | IC50 (Tumor necrosis factor): 5.68 µM (active)

CCOc1ccccc1NC(=O)CCCc1nc(O)c2ccccc2n1
IC50 [1]: 71.7 µM (inactive)

Cc1ccc2c(c1)C1CN(C)CCC1N2C(=O)Nc1cccc(C(F)(F)F)c1 (stereo unspecified)
CC50 (Vero): > 25 µM (active) | EC50 [23]: > 195 µM (not active)

Cc1ccc(C)c(N/C([S-])=C(/C(=O)c2ccc(Cl)s2)[n+]2ccccc2)c1
IC50 [19]: 9.94 µM (active) | IC50 [22]: 5.82 µM (active)

CCNc1cc2c(cc1O)CCC1C2CCC2(C)C(O)CCC12 (stereo unspecified)
IC50 [1]: > 80 µM (inactive)

O=C(CNCCC1=CCCCC1)Nc1ccccc1N1CCCCCC1
AC50 [7]: 2.54 µM (active)
